Results published in patent publication US20210063414A1, “METHODS FOR PREVENTING AND/OR TREATING BONE LOSS CONDITIONS BY MODULATING IRISIN” (Dana-Farber Cancer Institute, Inc., priority 2018, published 2021).

Test system: sclerostin mRNA in MLO-Y4 cells
Assay: Sclerostin mRNA in MLO-Y4 cells, qRT-PCR
Format: cell-based, mouse
Conditions: MLO-Y4, inhibitor pre-treatment 10 minutes, irisin 16 hours
Description: Cells were stained with Hoechst 33342 and Eth-D1, and analyzed to determine the percentage of cell death. *: p<0.05, ***: p<0.001 vs 0.3 mM H2O2 treated condition. […] MLO-Y4 cells were seeded and incubated until 60% cell density. The cells were incubated with Freestyle293 medium for 4 hours and were treated with indicated concentrations of irisin for 16 hours. Sclerostin mRNA level was analyzed by qRT-PCR. Cyclophilin was used as a control house-keeping gene.
MLO-Y4 cells were incubated in serum free medium for 3 hours followed by treatment of indicated concentrations of irisin for indicated time (FIG. 6A), or followed by treatment of 0 or 10 nM irisin in the presence of indicated integrin inhibitors or their control peptide for 16 hours (FIG. 6B). Sclerostin mRNA level was analyzed by qPCR.
Certain materials and methods were used to generate the results described herein. For example, the data shown in FIG. 1A resulted from MLO-Y4 (an osteocyte-like cell line) cells treated with the indicated concentration of irisin and hydrogen peroxide for 4 hours. Cells were stained with Hoechst 33342 (ThermoFisher Scientific, catalog number H3570) and Eth-D1 (ThermoFisher Scientific, catalog number E1169) and analyzed to determine the percentage of cell death using ImageJ. The data shown in FIG. 2D resulted from MLO-Y4 incubated in serum free medium (FreeStyle™ 293 expression medium, ThermoFisher Scientific, catalog number 12338018) for 4 hours followed by treatment of indicated concentrations of irisin for 10 minutes. Cells were lysed to detect the indicated protein level using immunoblot analysis (Cell Signaling Technology, catalog numbers 3283S, 3285S, 8467S, 3553S, 9198S, and 9104S; Abcam, catalog number ab49900-100ul). The data shown in FIG. 3 resulted from 3T3-F442A cells incubated in serum free medium for 4 hours followed by treatment of indicated concentrations of irisin for 10 minutes. Cells were lysed by RIPA buffer to detect the indicated protein level using immunoblot analysis. The data shown in FIG. 4 were generated from 100 nM flag-tagged irisin (Enzo life sciences, catalog number ADI-908-307-3010) incubated with 5 nM of the indicated 6 his-tag integrins (R & D Systems Inc., catalog numbers 7064-AB-025, 5668-A4-050, 5438-A9-050, 6357-AB-050, and 6579-AV-025) in the presence of RGDS peptide (R & D Systems Inc., catalog number 3498/10) or its control peptide (Enzo Life Sciences, catalog Number BML-P701-0005) followed by immunoprecipitation using 6 his-tag beads (ThermoFisher Scientific, catalog number R901-01). Co-precipitated irisin was analyzed by immunoblot analysis against flag tag (Sigma Aldrich, catalog number A8592). The data shown in FIGS. 5A and 5B were generated from MLO-Y4 cells treated and analyzed as in the experiments used to generate the data shown in FIG. 2D, except that pre-treatment of 100 nM RGDS (FIG. 5A) or echistatin (R & D Systems Inc., catalog number 3202/100U) (FIG. 5B) for 10 minutes was performed before irisin treatment. The data shown in FIGS. 6A and 6B were generated from MLO-Y4 cells incubated in serum free medium for 3 hours followed by treatment of indicated time of 10 nM irisin for 16 hours. RNAs were extracted from the cells and the sclerostin mRNA level was analyzed by qPCR (FIG. 6A) or treated and analyzed as in (FIG. 6A), except that pre-treatment of 10 μM RGDS, RGDyK (Selleck, catalog number S7844), or echistatin was performed for 10 minutes before irisin treatment. […] Sclerostin mRNA level was analyzed by qPCR (FIG. 7A). […]

Compound | effect of integrin inhibitor on irisin-induced sclerostin mRNA | effect of integrin inhibitor on irisin-induced sclerostin mRNA (listed as RGDyK circular peptide) | effect of integrin inhibitor on irisin-induced sclerostin mRNA (listed as RGD peptide)
N=C(N)NCCC[C@@H]1NC(=O)[C@H](CCCCN)NC(=O)[C@@H](Cc2ccc(O)cc2)NC(=O)[C@H](CC(=O)O)NC(=O)CNC1=O [cyclo RGDyK] | prevented sclerostin induction | sensitive | 
RGDS peptide: classical integrin competitive inhibitory peptide, commercially available form of the RGD peptide | sensitive |  | prevented sclerostin induction
